From US10035800B2 (AbbVie Inc., priority 2013, dated 2018) come the findings set out here.

One assay concerns the target T1, BRD4 (BDII_E352-M457) (Homo sapiens, UniProt O60885).
T1 construct: protocol; made in house
Description: TR-FRET bromodomain binding assay, second bromodomain of BRD4. To be noted: TR-FRET assay protocol G (compound 0.92 μM-15 pM); 30 nM probe. Here is the method:
(§1) Bromodomain Domain Binding Assay
(§2) A time-resolved fluorescence resonance energy transfer (TR-FRET) assay was used to determine the affinities of compounds of the Examples listed in Table 1 for each bromodomain of BRD4. His-tagged first (BD1: amino acids K57-E168) and second (BD2: amino acids […]) bromodomains of BRD4 were expressed and purified. An Alexa647-labeled BET-inhibitor was used as the fluorescent probe in the assay.
(§3) Compound dilution series were prepared in DMSO via an approximately 3-fold serial dilution from one of the following: […]
(§4) Assay method E: 0.47 mM to 7.8 nM […]
(§5) Assay method G: 0.047 mM to 0.78 nM
(§6) or 5-fold serial dilution from one of the following: […]
(§7) Assay method B: 2.5 mM-797 nM […]
(§8) For Assay methods B, E, and G: Compound dilutions were added directly into white, low-volume assay plates (Perkin Elmer Proxiplate 384 Plus#6008280) using a Labcyte Echo in conjunction with Labcyte Access and Thermo Multidrop CombinL robotics. Compounds were then suspended in eight microliters (μL) of assay buffer (20 mM Sodium Phosphate, pH 6.0, 50 mM NaCl, 1 mM Ethylenediaminetetraacetic acid disodium salt dihydrate, 0.01% Triton X-100, 1 mM DL-Dithiothreitol) containing His-tagged bromodomain, Europium-conjugated anti-His antibody (Invitrogen PV5596) and Alexa-647-conjugated probe.
(§9) The final concentration of 1× assay mixture for assay methods A, B, C, D, E, F, and G contains 2% DMSO, 8 nM His-tagged bromodomain, 1 nM Europium-conjugated anti-His-tag antibody and 100 nM or 30 nM probe (for BDI or BDII, respectively) and compound concentration in the range of: 50 μM-16 nM for method A, 49.02 μM-15.63 nM for method B, 25 μM-423 pM for method C, 10 μM-169 pM for method D, 9.19 μM-150 pM for method E, 5 μM-85 pM for method F, and 0.92 μM-15 pM for method G.
(§10) After a one-hour equilibration at room temperature, TR-FRET ratios were determined using an Envision multilabel plate reader (Ex 340, Em 495/520).
(§11) TR-FRET data were normalized to the means of 24 no-compound controls (“high”) and 8 controls containing 1 μM un-labeled probe (“low”). Percent inhibition was plotted as a function of compound concentration and the data were fit with the 4 parameter logistic equation to obtain IC50s. Inhibition constants (Ki) were calculated from the IC50s, probe Kd and probe concentration. Typical Z′ values were between 0.65 and 0.75. The minimum significant ratio was determined to evaluate assay reproducibility (Eastwood et al., (2006) J Biomol Screen, 11: 253-261). The MSR was determined to be 2.03 for BDI and 1.93 for BDII, and a moving MSR (last six run MSR overtime) for both BDI and BDII was typically <3.
(TR-FRET usually uses a lanthanide donor and a delayed reading to cut background.)

A further assay has as its target T2, BRD4 (BDI_K57-E168) (Homo sapiens, UniProt O60885).
T2 construct: BD1: amino acids K57-E168; made in house
Nature of the assay: TR-FRET bromodomain binding assay, first bromodomain of BRD4. To be noted: TR-FRET assay protocol G (compound 0.92 μM-15 pM); 100 nM probe. The method, then:
as §1, §2, §3, §4, §5, §6, §7, §8, §9, §10, §11

The term Ki denotes a measure of affinity in units of concentration, obtained from inhibition or displacement. For `Cn1cc2c3c(c[nH]c3c1=O)CN(C(=O)c1ccc(F)cc1)c1ccc(CS(C)(=O)=O)cc1-2` [Example 100, 4-(4-fluorobenzoyl)-10-methyl-7-((methylsulfonyl)methyl)-3,4-dihydro-1H-1,4,10-triazadibenzo[cd,f]azulen-11(10H)-one], the Ki on BRD4 (BDII_E352-M457) was 7.41 nM; at BRD4 (BDI_K57-E168), 29.8 nM.

For the compound `COCCC(=O)N1Cc2c[nH]c3c(=O)n(C)cc(c23)-c2cc(CS(C)(=O)=O)ccc21` [Example 101, 4-(3-methoxypropanoyl)-10-methyl-7-((methylsulfonyl)methyl)-3,4-dihydro-1H-1,4,10-triazadibenzo[cd,f]azulen-11(10H)-one], the Ki on BRD4 (BDII_E352-M457) worked out at 2.77 nM; on BRD4 (BDI_K57-E168), 4.83 nM.

`Cn1cc2c3c(c[nH]c3c1=O)CN(C(=O)CCC1CCCC1)c1ccc(CS(C)(=O)=O)cc1-2` [Example 103, 4-(3-cyclopentylpropanoyl)-10-methyl-7-((methylsulfonyl)methyl)-3,4-dihydro-1H-1,4,10-triazadibenzo[cd,f]azulen-11(10H)-one]: the Ki at BRD4 (BDII_E352-M457) was found to be 4.71 nM; at BRD4 (BDI_K57-E168) it was 8.12 nM.

For the compound `COc1cccc(CC(=O)N2Cc3c[nH]c4c(=O)n(C)cc(c34)-c3cc(CS(C)(=O)=O)ccc32)c1` [Example 104, 4-(2-(3-methoxyphenyl)acetyl)-10-methyl-7-((methylsulfonyl)methyl)-3,4-dihydro-1H-1,4,10-triazadibenzo[cd,f]azulen-11(10H)-one], the inhibitory constant (Ki) was 26.2 nM on BRD4 (BDII_E352-M457) and 34.7 nM at BRD4 (BDI_K57-E168).

For the compound `Cn1cc2c3c(c[nH]c3c1=O)CN(C(=O)c1ccccc1)c1ccc(CS(C)(=O)=O)cc1-2` [Example 109, 4-benzoyl-10-methyl-7-((methylsulfonyl)methyl)-3,4-dihydro-1H-1,4,10-triazadibenzo[cd,f]azulen-11(10H)-one], the inhibition constant Ki is 15.6 nM at BRD4 (BDII_E352-M457) and 64.1 nM at BRD4 (BDI_K57-E168).

As for `COc1ccc(C(=O)N2Cc3c[nH]c4c(=O)n(C)cc(c34)-c3cc(CS(C)(=O)=O)ccc32)cc1` [Example 110, 4-(4-methoxybenzoyl)-10-methyl-7-((methylsulfonyl)methyl)-3,4-dihydro-1H-1,4,10-triazadibenzo[cd,f]azulen-11(10H)-one], the results for the inhibition constant Ki at BRD4 (BDII_E352-M457) and on BRD4 (BDI_K57-E168) were 19.9 nM and 41.7 nM, respectively.

Consider `Cn1cc2c3c(c[nH]c3c1=O)CN(C(=O)c1ccc(F)cc1F)c1ccc(CS(C)(=O)=O)cc1-2` [Example 112, 4-(2,4-difluorobenzoyl)-10-methyl-7-((methylsulfonyl)methyl)-3,4-dihydro-1H-1,4,10-triazadibenzo[cd,f]azulen-11(10H)-one], for which the inhibition constant Ki was 15.2 nM at BRD4 (BDII_E352-M457) and 53.2 nM on BRD4 (BDI_K57-E168).

Regarding `Cn1cc2c3c(c[nH]c3c1=O)CN(C(=O)c1ccccc1F)c1ccc(CS(C)(=O)=O)cc1-2` [Example 113, 4-(2-fluorobenzoyl)-10-methyl-7-((methylsulfonyl)methyl)-3,4-dihydro-1H-1,4,10-triazadibenzo[cd,f]azulen-11(10H)-one], the inhibitory constant (Ki) on BRD4 (BDII_E352-M457) was determined as 10.9 nM; at BRD4 (BDI_K57-E168), 85.6 nM.

Consider `Cn1cc2c3c(c[nH]c3c1=O)CN(C(=O)c1cccc3ccccc13)c1ccc(CS(C)(=O)=O)cc1-2` [Example 114, 4-(1-naphthoyl)-10-methyl-7-((methylsulfonyl)methyl)-3,4-dihydro-1H-1,4,10-triazadibenzo[cd,f]azulen-11(10H)-one], for which the Ki came to 25.5 nM at BRD4 (BDII_E352-M457) and 112 nM at BRD4 (BDI_K57-E168).

As for `Cn1cc2c3c(c[nH]c3c1=O)CN(C(=O)CCc1ccccc1)c1ccc(CS(C)(=O)=O)cc1-2` [Example 116, 10-methyl-7-((methylsulfonyl)methyl)-4-(3-phenylpropanoyl)-3,4-dihydro-1H-1,4,10-triazadibenzo[cd,f]azulen-11(10H)-one], the Ki on BRD4 (BDII_E352-M457) came to 11.2 nM; at BRD4 (BDI_K57-E168) it was 16 nM.

As to `CN(C)C(NCC1c2c[nH]c3c(=O)n(C)cc(c23)-c2cc(CS(C)(=O)=O)ccc2N1c1ccc(F)cc1F)=[N+](C)C` (stereo not shown) [Example 130, N-((((4-(2,4-difluorophenyl)-10-methyl-7-((methylsulfonyl)methyl)-11-oxo-3,4,10,11-tetrahydro-1H-1,4,10-triazadibenzo[cd,f]azulen-3-yl)methyl)amino)(dimethylamino)methylene)-N-methylmethanaminium], the Ki at BRD4 (BDII_E352-M457) worked out at 14.6 nM; on BRD4 (BDI_K57-E168), 215 nM.

Turning to `CCN1CCCC(CN2Cc3c[nH]c4c(=O)n(C)cc(c34)-c3cc(CS(C)(=O)=O)ccc32)C1` (stereo not shown) [Example 150, 4-((1-ethylpiperidin-3-yl)methyl)-10-methyl-7-((methylsulfonyl)methyl)-3,4-dihydro-1H-1,4,10-triazadibenzo[cd,f]azulen-11(10H)-one], the values for the inhibitory constant (Ki) at BRD4 (BDII_E352-M457) and on BRD4 (BDI_K57-E168) were 10.8 nM and 4.05 nM, respectively.

`Cn1cc2c3c(c[nH]c3c1=O)C(C(=O)NC1CCCCC1)N(c1ccc(F)cc1F)c1ccc(CS(C)(=O)=O)cc1-2` (stereo not shown) [Example 158, N-cyclohexyl-4-(2,4-difluorophenyl)-10-methyl-7-((methylsulfonyl)methyl)-11-oxo-3,4,10,11-tetrahydro-1H-1,4,10-triazadibenzo[cd,f]azulene-3-carboxamide]: the inhibitory constant (Ki) at BRD4 (BDII_E352-M457) turned out to be 77.3 nM; on BRD4 (BDI_K57-E168), 60.3 nM.

For `Cn1cc2c3c(c[nH]c3c1=O)C(C(=O)NCCO)N(c1ccc(F)cc1F)c1ccc(CS(C)(=O)=O)cc1-2` (stereo not shown) [Example 162, 4-(2,4-difluorophenyl)-N-(2-hydroxyethyl)-10-methyl-7-((methylsulfonyl)methyl)-11-oxo-3,4,10,11-tetrahydro-1H-1,4,10-triazadibenzo[cd,f]azulene-3-carboxamide], the figures for the Ki at BRD4 (BDII_E352-M457) and on BRD4 (BDI_K57-E168) were 60.4 nM and 47.1 nM, respectively.

Take `Cn1cc2c3c(c[nH]c3c1=O)C(C(=O)NCc1cocn1)N(c1ccc(F)cc1F)c1ccc(CS(C)(=O)=O)cc1-2` (stereo not shown) [Example 163, 4-(2,4-difluorophenyl)-10-methyl-7-((methylsulfonyl)methyl)-N-(oxazol-4-ylmethyl)-11-oxo-3,4,10,11-tetrahydro-1H-1,4,10-triazadibenzo[cd,f]azulene-3-carboxamide]: the values for the Ki at BRD4 (BDII_E352-M457) and at BRD4 (BDI_K57-E168) were 45.4 nM and 57.4 nM, respectively.

For `Cn1cc2c3c(c[nH]c3c1=O)C(C(=O)NCC(C)(C)O)N(c1ccc(F)cc1F)c1ccc(CS(C)(=O)=O)cc1-2` (stereo not shown) [Example 165, 4-(2,4-difluorophenyl)-N-(2-hydroxy-2-methylpropyl)-10-methyl-7-((methylsulfonyl)methyl)-11-oxo-3,4,10,11-tetrahydro-1H-1,4,10-triazadibenzo[cd,f]azulene-3-carboxamide], the Ki was 79.6 nM on BRD4 (BDII_E352-M457) and 81.4 nM at BRD4 (BDI_K57-E168).

With `Cn1cc2c3c(c[nH]c3c1=O)C(C(=O)NCCCCc1ccccc1)N(c1ccc(F)cc1F)c1ccc(CS(C)(=O)=O)cc1-2` (stereo not shown) [Example 168, 4-(2,4-difluorophenyl)-10-methyl-7-((methylsulfonyl)methyl)-11-oxo-N-(4-phenylbutyl)-3,4,10,11-tetrahydro-1H-1,4,10-triazadibenzo[cd,f]azulene-3-carboxamide], the values for the Ki at BRD4 (BDII_E352-M457) and on BRD4 (BDI_K57-E168) were 124 nM and 93.2 nM, respectively.

`Cn1cc2c3c(c[nH]c3c1=O)CN(C1CCC(N)CC1)c1ccc(S(C)(=O)=O)cc1-2` (stereo not drawn) [Example 171, 4-((trans)-4-aminocyclohexyl)-10-methyl-7-(methylsulfonyl)-3,4-dihydro-1H-1,4,10-triazadibenzo[cd,f]azulen-11(10H)-one]: the Ki at BRD4 (BDII_E352-M457) turned out to be 29.2 nM; on BRD4 (BDI_K57-E168), 16.4 nM.

In the case of `CC1OCCC1N1Cc2c[nH]c3c(=O)n(C)cc(c23)-c2cc(CS(C)(=O)=O)ccc21` (stereo not shown) [Example 180, 10-methyl-7-((methylsulfonyl)methyl)-4-(2-methyltetrahydrofuran-3-yl)-3,4-dihydro-1H-1,4,10-triazadibenzo[cd,f]azulen-11(10H)-one], the inhibitory constant (Ki) at BRD4 (BDII_E352-M457) stood at 2.7 nM; on BRD4 (BDI_K57-E168), 1.51 nM.

With `CN1CCC(N2Cc3c[nH]c4c(=O)n(C)cc(c34)-c3cc(CS(C)(=O)=O)ccc32)CC1` [Example 181], the Ki was determined as 17.1 nM on BRD4 (BDII_E352-M457) and 3.33 nM at BRD4 (BDI_K57-E168).
